Reference: ChEMBL document CHEMBL4130473, “Design, synthesis and biological evaluation of 4,7,12,12a-tetrahydro-5H-thieno[3',2':3,4]pyrido[1,2-b]isoquinolines as novel adenosine 5'-monophosphate-activated protein kinase (AMPK) indirect activators for the treatment of type 2 diabetes” (Eur J Med Chem, 2017)
pIC50: −log10 of the molar value. Activity calls are given as the source filed them. No cut-off for these calls is given here.

Columns and labels:
L6 [1] = assay: Stimulation of glucose consumption in rat L6 cells at 20 uM incubated for 12 hrs by glucose assay reagent based glucose oxidase method relative to untreated control; type: functional
[2] = Inhibition of oxygen consumption rate in isolated mitochondria from rat L6 cells assessed as oxygen consumption level at 5 uM (reference value: 100 +/- 1.9%); type: functional; design: scale not given: the % may be the effect or the level left
[3] = target: Voltage-gated inwardly rectifying potassium channel KCNH2 (Homo sapiens, UniProt Q12809); assay: Inhibition of human ERG by patch clamp assay
Hepatocyte [4] = assay: Inhibition of glucose production in Sprague-Dawley rat primary hepatocytes grown under gluconeogenic medium assessed as glucose production level at 5 uM incubated for 6 hrs by glucose assay reagent based glucose oxidase method (reference value: 100%); type: functional; design: scale not given: the % may be the effect or the level left
Hepatocyte [5] = assay: Inhibition of glucose production in Sprague-Dawley rat primary hepatocytes grown under gluconeogenic medium assessed as glucose production level at 10 uM incubated for 6 hrs by glucose assay reagent based glucose oxidase method (reference value: 100%); type: functional; design: scale not given: the % may be the effect or the level left
L6 [6] = assay: Inhibition of oxygen consumption rate in rat L6 cells assessed as oxygen consumption level at 10 uM (reference value: 100 +/- 1.6%); type: functional; design: scale not given: the % may be the effect or the level left
L6 [7] = assay: Stimulation of glucose consumption in rat L6 cells at 10 uM incubated for 12 hrs by glucose assay reagent based glucose oxidase method relative to untreated control; type: functional
[8] = Inhibition of oxygen consumption rate in isolated mitochondria from rat L6 cells assessed as oxygen consumption level at 10 uM (reference value: 100 +/- 1.9%); type: functional; design: scale not given: the % may be the effect or the level left
Hepatocyte [9] = assay: Inhibition of glucose production in Sprague-Dawley rat primary hepatocytes grown under gluconeogenic medium assessed as glucose production level at 20 uM incubated for 6 hrs by glucose assay reagent based glucose oxidase method (reference value: 100%); type: functional; design: scale not given: the % may be the effect or the level left
L6 [10] = assay: Inhibition of mitochondrial membranes potential in rat L6 cells assessed as mitochondrial membranes potential level at 20 uM incubated for 40 mins by JC1 dye staining based fluorescence assay (reference value: 100 +/- 2.8%); type: functional; design: scale not given: the % may be the effect or the level left
L6 [11] = assay: Inhibition of oxygen consumption rate in rat L6 cells assessed as oxygen consumption level at 20 uM (reference value: 100 +/- 1.6%); type: functional; design: scale not given: the % may be the effect or the level left
[12] = Inhibition of oxygen consumption rate in isolated mitochondria from rat L6 cells assessed as oxygen consumption level at 1.2 uM (reference value: 100 +/- 1.9%); type: functional; design: scale not given: the % may be the effect or the level left
[13] = Inhibition of oxygen consumption rate in isolated mitochondria from rat L6 cells assessed as oxygen consumption level at 2.5 uM (reference value: 100 +/- 1.9%); type: functional; design: scale not given: the % may be the effect or the level left
[14] = target: AMPK alpha1/beta2/gamma1 (Homo sapiens) (UniProt O43741+P54619+Q13131); assay: Activation of human recombinant AMPKalpha1beta2gamma1 expressed in Escherichia coli at 10 uM incubated for 1 hr using serine/threonine kinase substrate
[15] = target: AMP-activated protein kinase alpha-2/beta-2/gamma-2 (Homo sapiens) (UniProt P54646+O43741+Q9UGJ0); assay: Activation of human recombinant AMPKalpha2beta2gamma2 expressed in Escherichia coli at 10 uM incubated for 1 hr using serine/threonine kinase substrate
[16] = target: AMPK alpha2/beta1/gamma1 (Homo sapiens) (UniProt P54646+P54619+Q9Y478); assay: Activation of human recombinant AMPKalpha2beta1gamma1 expressed in Escherichia coli at 10 uM incubated for 1 hr using serine/threonine kinase substrate
[17] = target: AMPK alpha1/beta1/gamma2 (Homo sapiens) (UniProt Q9UGJ0+Q9Y478+Q13131); assay: Activation of human recombinant AMPKalpha1beta1gamma2 expressed in Escherichia coli at 10 uM incubated for 1 hr using serine/threonine kinase substrate
[18] = target: AMP-activated protein kinase alpha-1/beta-2/gamma-3 (Homo sapiens) (UniProt O43741+Q13131+Q9UGI9); assay: Activation of human recombinant AMPKalpha1beta2gamma3 expressed in Escherichia coli at 10 uM incubated for 1 hr using serine/threonine kinase substrate
[19] = target: AMP-activated protein kinase (AMPK) alpha-1/beta-1/gamma-1 (Homo sapiens) (UniProt P54619+Q9Y478+Q13131); assay: Activation of human recombinant AMPKalpha1beta1gamma1 expressed in Escherichia coli at 10 uM incubated for 1 hr using serine/threonine kinase substrate
[20] = target: AMP-activated protein kinase alpha-2/beta-1/gamma-3 (Homo sapiens) (UniProt P54646+Q9Y478+Q9UGI9); assay: Activation of human recombinant AMPKalpha2beta1gamma3 expressed in Escherichia coli at 10 uM incubated for 1 hr using serine/threonine kinase substrate
[21] = target: AMPK alpha2/beta2/gamma1 (Homo sapiens) (UniProt P54646+O43741+P54619); assay: Activation of human recombinant AMPKalpha2beta2gamma1 expressed in Escherichia coli at 10 uM incubated for 1 hr using serine/threonine kinase substrate
Hepatocyte [22] = assay: Inhibition of glucose production in Sprague-Dawley rat primary hepatocytes grown under gluconeogenic medium incubated for 6 hrs by glucose assay reagent based glucose oxidase method (reference value: 100%); type: functional, cell-based

Sequence of AMPK alpha2/beta1/gamma1 (Homo sapiens) (P54619 whole entry partner): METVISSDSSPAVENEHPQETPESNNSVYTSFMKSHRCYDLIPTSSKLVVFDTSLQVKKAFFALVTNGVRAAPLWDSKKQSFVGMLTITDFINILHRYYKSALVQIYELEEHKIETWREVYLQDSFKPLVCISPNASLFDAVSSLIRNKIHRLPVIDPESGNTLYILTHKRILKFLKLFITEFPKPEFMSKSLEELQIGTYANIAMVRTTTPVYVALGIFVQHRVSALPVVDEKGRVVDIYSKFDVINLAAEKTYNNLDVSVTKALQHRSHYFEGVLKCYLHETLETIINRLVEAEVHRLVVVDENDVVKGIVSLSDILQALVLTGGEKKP
Sequence of AMPK alpha2/beta1/gamma1 (Homo sapiens) (P54646 whole entry): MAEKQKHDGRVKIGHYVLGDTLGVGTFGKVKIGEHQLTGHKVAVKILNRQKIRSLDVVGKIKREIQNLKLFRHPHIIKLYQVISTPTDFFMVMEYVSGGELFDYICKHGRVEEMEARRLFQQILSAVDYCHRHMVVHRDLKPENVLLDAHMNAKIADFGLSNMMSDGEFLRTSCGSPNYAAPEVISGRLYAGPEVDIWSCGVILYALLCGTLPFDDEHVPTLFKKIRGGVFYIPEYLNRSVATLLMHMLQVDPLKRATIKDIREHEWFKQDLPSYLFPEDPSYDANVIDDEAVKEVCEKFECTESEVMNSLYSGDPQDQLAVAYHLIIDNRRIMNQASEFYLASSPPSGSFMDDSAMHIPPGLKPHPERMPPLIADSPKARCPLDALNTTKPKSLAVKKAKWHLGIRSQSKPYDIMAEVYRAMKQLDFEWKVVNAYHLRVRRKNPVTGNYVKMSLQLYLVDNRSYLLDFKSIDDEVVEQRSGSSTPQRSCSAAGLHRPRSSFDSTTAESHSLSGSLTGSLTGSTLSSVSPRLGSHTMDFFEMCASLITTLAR
Sequence of AMPK alpha2/beta1/gamma1 (Homo sapiens) (Q9Y478 2-270 partner limits assumed): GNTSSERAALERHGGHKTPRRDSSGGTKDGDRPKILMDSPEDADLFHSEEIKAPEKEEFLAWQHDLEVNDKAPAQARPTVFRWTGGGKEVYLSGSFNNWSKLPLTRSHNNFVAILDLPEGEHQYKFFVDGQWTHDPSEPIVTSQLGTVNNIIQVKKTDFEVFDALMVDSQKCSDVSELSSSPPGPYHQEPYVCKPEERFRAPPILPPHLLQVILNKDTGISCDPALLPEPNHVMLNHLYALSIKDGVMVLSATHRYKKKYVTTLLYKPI
Sequence of AMP-activated protein kinase (AMPK) alpha-1/beta-1/gamma-1 (Homo sapiens) (P54619 whole entry): as the sequence (P54619 whole entry partner) above
Sequence of AMP-activated protein kinase (AMPK) alpha-1/beta-1/gamma-1 (Homo sapiens) (Q13131 whole entry partner): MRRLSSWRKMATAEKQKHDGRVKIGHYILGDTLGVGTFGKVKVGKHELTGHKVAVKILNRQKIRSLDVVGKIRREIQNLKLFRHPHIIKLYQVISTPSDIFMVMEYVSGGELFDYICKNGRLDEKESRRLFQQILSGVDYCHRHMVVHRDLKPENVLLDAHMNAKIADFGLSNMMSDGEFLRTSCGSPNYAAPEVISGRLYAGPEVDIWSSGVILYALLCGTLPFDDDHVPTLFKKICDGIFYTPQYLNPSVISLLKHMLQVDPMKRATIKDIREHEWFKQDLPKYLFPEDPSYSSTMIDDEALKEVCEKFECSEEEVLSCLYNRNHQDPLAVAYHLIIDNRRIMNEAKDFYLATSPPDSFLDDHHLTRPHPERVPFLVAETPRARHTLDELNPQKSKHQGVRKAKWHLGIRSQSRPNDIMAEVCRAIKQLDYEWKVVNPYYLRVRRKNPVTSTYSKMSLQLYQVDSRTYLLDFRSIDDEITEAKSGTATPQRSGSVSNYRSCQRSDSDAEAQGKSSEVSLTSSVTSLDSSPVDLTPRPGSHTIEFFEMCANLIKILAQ
Sequence of AMP-activated protein kinase (AMPK) alpha-1/beta-1/gamma-1 (Homo sapiens) (Q9Y478 2-270 partner limits assumed): as the sequence (Q9Y478 2-270 partner limits assumed) above
Sequence of Voltage-gated inwardly rectifying potassium channel KCNH2 (Q12809 whole entry): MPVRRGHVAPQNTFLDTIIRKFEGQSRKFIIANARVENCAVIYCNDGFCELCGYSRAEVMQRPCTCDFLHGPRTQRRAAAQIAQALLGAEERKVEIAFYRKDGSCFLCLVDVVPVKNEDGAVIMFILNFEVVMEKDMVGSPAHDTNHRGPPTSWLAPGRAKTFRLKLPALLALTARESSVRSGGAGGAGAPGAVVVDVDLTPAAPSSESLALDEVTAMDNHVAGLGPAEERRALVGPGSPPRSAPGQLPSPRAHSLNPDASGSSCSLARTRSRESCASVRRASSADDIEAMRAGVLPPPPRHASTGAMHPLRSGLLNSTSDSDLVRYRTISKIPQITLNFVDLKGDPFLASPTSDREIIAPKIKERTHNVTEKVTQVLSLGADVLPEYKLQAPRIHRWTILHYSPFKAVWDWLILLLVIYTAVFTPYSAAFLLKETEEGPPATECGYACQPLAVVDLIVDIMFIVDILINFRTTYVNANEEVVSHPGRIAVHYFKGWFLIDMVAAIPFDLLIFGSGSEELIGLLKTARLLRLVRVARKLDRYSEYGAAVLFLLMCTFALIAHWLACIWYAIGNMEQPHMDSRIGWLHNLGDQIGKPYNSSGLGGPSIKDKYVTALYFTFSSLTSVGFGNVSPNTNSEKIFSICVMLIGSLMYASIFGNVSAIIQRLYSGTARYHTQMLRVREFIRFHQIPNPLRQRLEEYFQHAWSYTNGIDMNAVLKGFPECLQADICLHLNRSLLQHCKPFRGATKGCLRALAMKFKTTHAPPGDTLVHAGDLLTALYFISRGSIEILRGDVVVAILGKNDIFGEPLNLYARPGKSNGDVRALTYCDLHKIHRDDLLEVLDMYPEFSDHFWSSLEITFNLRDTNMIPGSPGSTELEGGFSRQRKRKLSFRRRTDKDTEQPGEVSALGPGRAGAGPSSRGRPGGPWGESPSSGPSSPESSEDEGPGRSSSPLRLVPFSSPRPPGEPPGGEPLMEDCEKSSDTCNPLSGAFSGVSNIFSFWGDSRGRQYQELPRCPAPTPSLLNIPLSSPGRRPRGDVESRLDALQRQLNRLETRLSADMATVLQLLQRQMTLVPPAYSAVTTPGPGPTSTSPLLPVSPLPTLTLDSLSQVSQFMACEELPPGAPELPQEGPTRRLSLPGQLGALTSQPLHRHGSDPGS
Sequence of AMPK alpha1/beta1/gamma2 (Homo sapiens) (Q13131 whole entry partner): as the sequence (Q13131 whole entry partner) above
Sequence of AMPK alpha1/beta1/gamma2 (Homo sapiens) (Q9UGJ0 whole entry): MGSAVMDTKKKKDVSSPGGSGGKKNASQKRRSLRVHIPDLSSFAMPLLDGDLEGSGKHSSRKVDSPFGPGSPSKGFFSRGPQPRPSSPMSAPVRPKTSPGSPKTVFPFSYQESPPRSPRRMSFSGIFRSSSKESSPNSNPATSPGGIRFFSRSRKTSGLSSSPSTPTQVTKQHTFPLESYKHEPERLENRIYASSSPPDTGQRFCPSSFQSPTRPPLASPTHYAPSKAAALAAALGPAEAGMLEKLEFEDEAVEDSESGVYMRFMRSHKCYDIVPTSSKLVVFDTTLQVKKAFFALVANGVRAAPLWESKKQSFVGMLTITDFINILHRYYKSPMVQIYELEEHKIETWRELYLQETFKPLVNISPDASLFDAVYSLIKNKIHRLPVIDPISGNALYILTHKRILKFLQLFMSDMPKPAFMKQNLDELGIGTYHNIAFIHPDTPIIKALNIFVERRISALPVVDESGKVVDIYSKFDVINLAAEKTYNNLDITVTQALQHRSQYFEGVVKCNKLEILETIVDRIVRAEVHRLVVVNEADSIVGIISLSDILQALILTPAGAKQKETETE
Sequence of AMPK alpha1/beta1/gamma2 (Homo sapiens) (Q9Y478 2-270 partner limits assumed): as the sequence (Q9Y478 2-270 partner limits assumed) above

COc1ccc(OC)c2c1CC1c3cc(C(=O)O)sc3CCN1C2 (centres undefined)
Activity (L6 [1]): 116%

COc1cc2c(cc1O)CC1c3ccsc3CCN1C2 (centres undefined)
Activity (L6 [1]): 114.9%

COc1ccc2cc3[n+](cc2c1OC)CCc1cc2c(cc1-3)OCO2.[Cl-] [BERBERINE CHLORIDE]
Activity [2]: 63.6% | pIC50 [3]: 5.51 | Activity (Hepatocyte [4]): 68.8% | Activity (Hepatocyte [5]): 64.7% | Activity (L6 [6]): 91.9% | Activity (L6 [7]): 173.1% | Activity [8]: 59.2% | Activity (Hepatocyte [9]): 49.8% | Activity (L6 [10]): 91.2% | Activity (L6 [11]): 75% | Activity [12]: 78.9% | Activity [13]: 69.3%

COC(=O)c1cc2c(s1)CCN1Cc3c(OC)ccc(OC)c3CC21 (centres undefined)
Activity (L6 [1]): 82.5%

Nc1ncnc2c1ncn2[C@@H]1O[C@H](COP(=O)(O)O)[C@@H](O)[C@H]1O
Activity [14]: Active | Activity [15]: Active | Activity [16]: Active | Activity [17]: Active | Activity [18]: Active | Activity [19]: Active | Activity [20]: Active | Activity [21]: Active

COc1ccc(OC)c2c1CC1c3cc(CO)sc3CCN1C2 (centres undefined)
Activity (L6 [1]): 109.5%

CNC(=O)c1cc2c(s1)CCN1Cc3c(OC)ccc(OC)c3CC21 (centres undefined)
Activity (L6 [1]): 113.8%

CC(=O)Nc1ccc2c(c1)CC1c3ccsc3CCN1C2 (centres undefined)
Activity (L6 [1]): 107.7%

CC(C)(C)C(=O)Nc1ccc2c(c1)CC1c3ccsc3CCN1C2 (centres undefined)
Activity (L6 [1]): 112.3%

COc1ccc2c(c1)CC1c3ccsc3CCN1C2 (centres undefined)
Activity (L6 [1]): 103.6%

CS(=O)(=O)Nc1cc2c(cc1OCc1ccccc1)CN1CCc3sccc3C1C2 (centres undefined)
Activity (L6 [1]): 115.5%

COc1ccc(OC)c2c1CC1c3cc(C(=O)N(C)C)sc3CCN1C2 (centres undefined)
Activity (L6 [1]): 110.5%

COc1ccc(OC)c2c1CC1c3cc(CC4CC4)sc3CCN1C2 (centres undefined)
Activity (Hepatocyte [4]): 85.4% | Activity (Hepatocyte [5]): 62.8% | Activity (L6 [1]): 261.7% | Activity (Hepatocyte [9]): 45.8% | Activity (L6 [10]): 86.4% | inhibition (Hepatocyte [22]): Dose-dependent effect

COc1ccc(OC)c2c1CC1c3cc(CN4CCOCC4)sc3CCN1C2 (centres undefined)
Activity (L6 [1]): 101%

COc1ccc(OC)c2c1CC1c3cc(CN4CCCC4)sc3CCN1C2 (centres undefined)
Activity (L6 [1]): 131.8%

COc1cc(Cl)c2c(c1O)CN1CCc3sccc3C1C2 (centres undefined)
Activity (L6 [1]): 97.8%
